# Data: paper PMC2995054 (Nucleic Acids Research, 2010)
# Molecular target: vaccinia virus D10 decapping enzyme (His-tagged, WT) (Vaccinia virus, UniProt P04312)
# Assay: biochemical
# Type: biochemical
# Settings: not given
Structure (SMILES),Inhibition of the decapping reaction (in words),IC50,Ki
Cc1cn([C@@H]2O[C@H](COP(=O)(O)OP(=O)(O)OP(=O)(O)O)[C@@H](O)[C@H]2O)c(=O)nc1N [5-methyl-CTP],unable to affect the activity of the enzyme,–,–
Cc1cn([C@@H]2O[C@H](COP(=O)(O)OP(=O)(O)OP(=O)(O)O)[C@@H](O)[C@H]2O)c(=O)[nH]c1=O [5-methyl-UTP],unable to affect the activity of the enzyme,–,–
Nc1ccn([C@@H]2O[C@H](COP(=O)(O)OP(=O)(O)O)[C@@H](O)[C@H]2O)c(=O)n1 [CDP],unable to affect the activity of the enzyme,–,–
Nc1ccn([C@@H]2O[C@H](COP(=O)(O)OP(=O)(O)OP(=O)(O)O)[C@@H](O)[C@H]2O)c(=O)n1 [CTP],no inhibition,–,–
Nc1nc2nc[nH]c2c(=O)[nH]1 [Guanine],did not affect the decapping reaction,> 200 µM,> 0.8 µM
NC(=O)c1ncn([C@@H]2O[C@H](CO[P@@](=O)(O)O[P@](=O)(O)OP(=O)(O)O)[C@@H](O)[C@H]2O)n1 [Ribavirin triphosphate],–,> 200 µM,> 0.8 µM
O=c1ccn([C@@H]2O[C@H](COP(=O)(O)OP(=O)(O)O)[C@@H](O)[C@H]2O)c(=O)[nH]1 [UDP],unable to affect the activity of the enzyme,–,–
O=c1ccn([C@@H]2O[C@H](COP(=O)(O)OP(=O)(O)OP(=O)(O)O)[C@@H](O)[C@H]2O)c(=O)[nH]1 [UTP],no inhibition,–,–
O=P(O)(O)OP(=O)(O)O [pyrophosphate],unable to inhibit,–,–
O=P(O)(O)OP(=O)(O)OP(=O)(O)O [tripolyphosphate],unable to inhibit,–,–

# Same assay, conditions: 0.25 h, read-out: Relative decapping activity (%) (100 µM analog)
row,Structure (SMILES),remaining activity at 100 µM
1,Nc1nc2nc[nH]c2c(=O)[nH]1 [Guanine],92 ± 4%
2,NC(=O)c1ncn([C@@H]2O[C@H](CO[P@@](=O)(O)O[P@](=O)(O)OP(=O)(O)O)[C@@H](O)[C@H]2O)n1 [Ribavirin triphosphate],96 ± 3%
